# Patent US7189691B2, “Methods and compositions for treating leukemia” (The Administrators of the Tulane Educational Fund, priority 2004, dated 2007)
# “Also recorded” adds a separate entry of the source.
# Columns and labels:
# B1 cells = experiment: Annexin-V/PI binding assay (flow cytometry); assay type: cell-based; conditions: treated for 24 h
# Experimental: To test the possibility that growth inhibition of t(4;11) leukemia cells exposed to PFWT is the result of apoptotic cell death, annexin-V labeling of the cell membrane of the leukemic cells examined in Example 5 was used to assess apoptosis as follows (Koopman, G., et al., Blood 1994 84: 1415–1420.). Annexin V binding assays were carried out using a Vibrant™ apoptosis kit (Molecular Probes). […] For annexin V-propidium iodide (PI) staining, cells were harvested, washed once with PBS and resuspended in 100 μl annexin binding buffer. 5 μl annexin V conjugated to Alexa Fluor 488 and 2 μl of 100 μg/ml PI were added to the cell suspension and incubated at room temperature for 15 minutes. The cells were then washed once in annexin binding buffer and resuspended in 400 μl annexin binding buffer. These samples were then analyzed by flow cytometry using Coulter benchtop flow cytometer. The cells were excited by a 488 nm wavelength laser beam and the emission was measured using a 530 nm filter for annexin V and a 575 nm filter for PI.
# NIH 373 cell line = experiment: Proliferation test; assay type: cell-based; conditions: data not shown
# MPc3 binding to AF9 = target: T1, MPc3 binding to AF9 (Homo sapiens, UniProt P42568); experiment: GST pull-down assay, GST-MPc3(202-362) and biotinylated AF9; design: species or system murine; conditions: 25 μg/ml
# T1 construct: made in house; host or cells: GST-MPc3 from E. coli; AF9 by coupled in vitro transcription/translation (Promega)
# T1 sequence (P42568 211-568): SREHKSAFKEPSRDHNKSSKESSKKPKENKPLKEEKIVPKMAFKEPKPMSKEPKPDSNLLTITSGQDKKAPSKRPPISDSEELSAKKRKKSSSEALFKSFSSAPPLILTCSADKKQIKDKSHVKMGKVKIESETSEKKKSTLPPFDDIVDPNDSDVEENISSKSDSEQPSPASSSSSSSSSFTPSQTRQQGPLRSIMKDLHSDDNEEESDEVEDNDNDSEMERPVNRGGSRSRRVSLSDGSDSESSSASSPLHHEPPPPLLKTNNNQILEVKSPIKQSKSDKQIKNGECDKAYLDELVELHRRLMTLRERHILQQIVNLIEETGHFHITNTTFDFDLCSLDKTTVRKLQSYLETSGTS
# Experimental: (§1) To determine if the synthetic peptide could disrupt the AF4-AF9 interaction in vitro, and to determine if the peptide disrupted other binding events with AF9, the following assay was performed. In additional to AF4, the carboxy-terminus of AF9 binds at least two other proteins, the Polycomb protein MPc3 and mBCoR, the mouse homolog of the human BCL-6 corepressor protein (Srinivasan 2003 and Hemenway 2001, both cited above). Using a yeast three hybrid assay similar to that described in Example 1, it was previously shown that mBCoR and FMR2 (an AF4 homolog) can simultaneously bind AF9. […] The sequences of human AF4 and AF9 and murine MPc3 and BCoR can be found in the NCBI database under Accession Nos. P51825, P42568, Q9QXV1, and AAN85318, respectively, incorporated by reference herein.
# (§2) Recombinant proteins consisting of glutathione-S-transferase (GST) fused to either (a) amino acids 749–775 of human AF4 SEQ ID NO: 107, (b) amino acids 202–362 of MPc3 SEQ ID NO: 108 or (c) amino acids 925–1759 of mBCoR SEQ ID NO: 109 were isolated from E. coli. These fusion proteins were immobilized on 50 μl glutathione agarose matrix. […]
# (§3) After extensive washing with TBST, proteins were resolved by SDS-PAGE and transferred to nitrocellulose. […] Alkaline phosphatase activity was measured by determining the optical density of the samples at 405 nm with a plate spectrophotometer. […]
# mBCoR binding to AF9 = target: T2, mBCoR binding to AF9 (Homo sapiens, UniProt P42568); experiment: GST pull-down assay, GST-mBCoR(925-1759) and biotinylated AF9; design: species or system murine; conditions: 25 μg/ml
# T2 construct: made in house; host or cells: GST-mBCoR from E. coli; AF9 by coupled in vitro transcription/translation (Promega)
# T2 sequence (P42568 211-568): T1 sequence (P42568 211-568)
# Experimental: as §1, §2, §3
# [1] = system: Reh B-precursor leukemia cell line; experiment: MTT viability assay; assay type: cell-based; conditions: 72 h
# B1 leukemia cell line = experiment: MTT viability assay; assay type: cell-based; conditions: 72 h, differing concentrations
# [2] = system: MOLT-4 T-cell leukemia line; experiment: MTT viability assay; assay type: cell-based; conditions: 72 h, up to 200 μg/ml
# [3] = system: RS4;11 leukemia cell line; experiment: MTT viability assay and growth curve (Trypan Blue exclusion); assay type: cell-based; conditions: 100 μg/ml, 72 h
# Experimental: All cell lines were maintained in RPMI 1640+10% FCS. 100 μl aliquots of cell suspension (5×10^5 cells/ml) were cultured in flat-bottomed 96 well plates in the presence of different concentrations of peptides. After 72 h incubation at 37° C. in humidified air containing 5% CO2, viable cell number was determined by MTT assay as follows: 10 μl of 3-[4,5-dimethylthiazol-2-yl]-2,5-diphenyl tetrazolium bromide (MTT) (5 mg/ml concentration) (Sigma) was added to each well and incubated further for 6 h. Formazan crystals that are formed during incubation were dissolved in 100 μl of acidified isopropanol. The optical density at 550 nm (which is linearly related to the number of viable cells) was measured using a plate spectrophotometer. Growth characteristics of the leukemia cell lines were also determined for cells by Trypan Blue exclusion.
compound,measurement,setting,value
CC[C@H](C)[C@H](NC(=O)[C@H](CCCCN)NC(=O)[C@@H](NC(=O)[C@H](Cc1c[nH]c2ccccc12)NC(=O)[C@H](CC(C)C)NC(=O)[C@H](CCCCN)NC(=O)[C@H](CCCCN)NC(=O)[C@H](Cc1c[nH]c2ccccc12)NC(=O)[C@H](CCCCN)NC(=O)[C@H](CCSC)NC(=O)[C@H](CCCNC(=N)N)NC(=O)[C@H](CCCNC(=N)N)NC(=O)[C@H](CC(N)=O)NC(=O)[C@H](CCC(N)=O)NC(=O)[C@H](Cc1ccccc1)NC(=O)[C@H](Cc1c[nH]c2ccccc12)NC(=O)[C@H](CCCCN)NC(=O)[C@@H](NC(=O)[C@H](CCC(N)=O)NC(=O)[C@@H](N)CCCNC(=N)N)[C@@H](C)CC)C(C)C)C(=O)N[C@@H](CC(=O)O)C(=O)N[C@@H](CC(C)C)C(=O)N[C@@H](CC(=O)O)C(=O)N[C@@H](CC(C)C)C(=O)N[C@@H](CC(C)C)C(=O)N[C@@H](CO)C(=O)N[C@@H](CCCNC(=N)N)C(=O)N[C@H](C(=O)N1CCC[C@H]1C(=O)O)C(C)C [PFWT],"cells in early stages of apoptosis (Annexin-V binding, exclusion of PI)",B1 cells,45%
same,cells in later stages of apoptosis (positive for Annexin-V and PI),B1 cells,35%
same,proliferation,NIH 373 cell line,not affect the proliferation
same,displacement of MPc3 from AF9,MPc3 binding to AF9,not displaced
same,displacement of mBCoR from AF9,mBCoR binding to AF9,not displaced
same,cell viability,[1],inhibited
same,cell viability,B1 leukemia cell line,diminished; also recorded: inhibits
same,cell viability,[2],not affected
same,proliferation / viability,[3],completely inhibits proliferation
